Structures are written as SMILES. Where “and” joins values, the source holds several entries; their conditions need not be identical. Equal entries are not always repeated. Toxic doses and inconclusive results are not listed. Peptide text beside a SMILES is read from it.

For this assay, the system named is P388 leukemia ip, CD2F1 mice, survival T/C. Description: NCI In Vivo Anticancer Drug Screen. Data for tumor model P388 Leukemia (intraperitoneal) in CD2F1 (CDF1) mice. The note with it: endpoint: median survival time, higher = longer survival. A digest of the protocol:
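Mice carrying the transplanted tumor received test compound or vehicle. Survival was recorded in each group, and the value is the treated-group measurement divided by that of the vehicle-treated control group.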

[1] abbreviates: dose: 60.0 mg/kg/injection, schedule: Q01DX005 (ip), vehicle: Klucel (hydroxypropylcellulose) (HPC).
Where [2] appears, read: dose: 120.0 mg/kg/injection, schedule: Q01DX005 (ip), vehicle: Klucel (hydroxypropylcellulose) (HPC).
Where [3] appears, read: dose: 240.0 mg/kg/injection, schedule: Q01DX005 (ip), vehicle: Klucel (hydroxypropylcellulose) (HPC).
Setting [4] is: dose: 100.0 mg/kg/injection, schedule: Q04DX003 (ip), vehicle: saline with Tween-80.
Setting [5] is: dose: 200.0 mg/kg/injection, schedule: Q04DX003 (ip), vehicle: saline with Tween-80.
Setting [6] is: dose: 400.0 mg/kg/injection, schedule: Q04DX003 (ip), vehicle: saline with Tween-80.
The mark [7] stands for this setting: dose: 50.0 mg/kg/injection, schedule: Q01DX005 (ip), vehicle: Klucel (hydroxypropylcellulose) (HPC).
[8] abbreviates: dose: 100.0 mg/kg/injection, schedule: Q01DX005 (ip), vehicle: Klucel (hydroxypropylcellulose) (HPC).
The mark [9] stands for this setting: dose: 200.0 mg/kg/injection, schedule: Q01DX005 (ip), vehicle: Klucel (hydroxypropylcellulose) (HPC).
[10] abbreviates: dose: 25.0 mg/kg/injection, schedule: Q01DX005 (ip), vehicle: Klucel (hydroxypropylcellulose) (HPC).
The mark [11] stands for this setting: dose: 50.0 mg/kg/injection, schedule: Q01DX009 (ip), vehicle: Klucel (hydroxypropylcellulose) (HPC).
Where [12] appears, read: dose: 25.0 mg/kg/injection, schedule: Q01DX009 (ip), vehicle: distilled water + Tween-80.
Where [13] appears, read: dose: 100.0 mg/kg/injection, schedule: Q01DX009 (ip), vehicle: distilled water + Tween-80.
Where [14] appears, read: dose: 200.0 mg/kg/injection, schedule: Q01DX009 (ip), vehicle: distilled water + Tween-80.

With `c1ccc2c(c1)Cc1c-2n[nH]c1-c1[nH]nc2c1Cc1ccccc1-2`, the T/C was 96 % of control under setting [1], 102 % of control under setting [2] and 96 % of control under setting [3].
As for `O=C(Nc1nc2cc(Cl)ccc2o1)c1ccc(C(=O)Nc2nc3cc(Cl)ccc3o2)cc1`, the T/C by setting is: under setting [4], 108 % of control; under setting [5], 94 % of control; under setting [6], 99 % of control.
With `CCn1c(C)nc2ncn(-c3ccccc3)c2c1=O`, the T/C under setting [7] was 100 % of control, the T/C under setting [8] was 100 % of control and the T/C under setting [9] was 98 % of control.
On to `CN1C(=O)C(Cc2cnc[nH]2)NC1=S` (stereo not given), for which the T/C runs as follows: under setting [1], 101 % of control; under setting [2], 111 % of control; under setting [3], 93 % of control.
Turning to `O=C(O)c1c2c(nc3ccccc13)-c1ccccc1C2`, the T/C was 102 % of control under setting [7], 93 % of control under setting [8] and 89 % of control under setting [9].
With `CC(SCCCCCCSC(C)C(=O)O)C(=O)O` (stereo not given), the T/C was 110 % of control under setting [7], 97 % of control under setting [8] and 95 % of control under setting [9].
`OCC(O)C(O)C(O)C(O)c1nnc2n[nH]c(=S)n2n1` (stereo not given): the T/C was 100 % of control (dose: 25.0 mg/kg/injection, schedule: Q01DX001 (ip), vehicle: Klucel (hydroxypropylcellulose) (HPC)); 98 % of control (dose: 50.0 mg/kg/injection, schedule: Q01DX001 (ip), vehicle: Klucel (hydroxypropylcellulose) (HPC)); 100 % of control (dose: 100.0 mg/kg/injection, schedule: Q01DX001 (ip), vehicle: Klucel (hydroxypropylcellulose) (HPC)).
As to `Nc1cc(Cl)cc2c1-c1ccc(Cl)cc1C2=O`, the T/C is 96 % of control under setting [10], 91 % of control under setting [7], 90 % of control under setting [8] and 89 % of control under setting [9].
On to `Cc1cc(C)c(F)[c]([Hg][Br])c1N`, for which the T/C reads like this: (dose: 0.78 mg/kg/injection, schedule: Q01DX005 (ip), vehicle: Klucel (hydroxypropylcellulose) (HPC)) 89 % of control; (dose: 1.56 mg/kg/injection, schedule: Q01DX005 (ip), vehicle: Klucel (hydroxypropylcellulose) (HPC)) 92 % of control; (dose: 6.25 mg/kg/injection, schedule: Q01DX005 (ip), vehicle: Klucel (hydroxypropylcellulose) (HPC)) 90 % of control and 92 % of control.
For `COc1ccc2c(=O)c(S)coc2c1`, the T/C was 100 % of control (dose: 60.0 mg/kg/injection, schedule: Q01DX005 (ip), vehicle: saline with Tween-80); 101 % of control (dose: 120.0 mg/kg/injection, schedule: Q01DX005 (ip), vehicle: saline with Tween-80); 100 % of control (dose: 240.0 mg/kg/injection, schedule: Q01DX005 (ip), vehicle: saline with Tween-80).
Turning to `NC1CC2CCCCC2CC1(O)c1ccccc1` (stereo not given), the T/C (dose: 12.5 mg/kg/injection, schedule: Q01DX009 (ip), vehicle: Klucel (hydroxypropylcellulose) (HPC)) is 98 % of control; the T/C (dose: 25.0 mg/kg/injection, schedule: Q01DX009 (ip), vehicle: Klucel (hydroxypropylcellulose) (HPC)) was 107 % of control; the T/C under setting [11] was 107 % of control.
Take `NC(=S)Nc1ccccc1`: the T/C was 100 % of control (dose: 2.5 mg/kg/injection, schedule: Q01DX009 (ip), vehicle: saline with Tween-80); 100 % of control (dose: 2.5 mg/kg/injection, schedule: Q04DX003 (ip), vehicle: saline sonified); 100 % of control (dose: 5.0 mg/kg/injection, schedule: Q01DX009 (ip), vehicle: saline with Tween-80); 104 % of control (dose: 5.0 mg/kg/injection, schedule: Q04DX003 (ip), vehicle: saline sonified); 100 % of control (dose: 10.0 mg/kg/injection, schedule: Q01DX009 (ip), vehicle: saline with Tween-80); 95 % of control (dose: 10.0 mg/kg/injection, schedule: Q04DX003 (ip), vehicle: saline sonified).
For the molecule `CNC(=O)OCc1c(-c2ccccc2)c(-c2ccccc2)n(-c2ccccc2)c1COC(=O)NC`, the T/C is, setting by setting: (dose: 12.5 mg/kg/injection, schedule: Q01DX009 (ip), vehicle: distilled water + Tween-80) 110 % of control; under setting [12], 112 % of control and 117 % of control; under setting [13], 155 % of control; under setting [14], 171 % of control and 175 % of control.
On to `CCC(C)C(N)C(=O)NC(Cc1ccc(O)cc1)C(=O)O` (stereo not drawn) (H-Ile-Tyr-OH; configuration not given here), for which the T/C under setting [1] was 97 % of control, the T/C under setting [2] was 96 % of control and the T/C under setting [3] was 99 % of control.
As to `O=P1(N(CCCl)CCCl)Nc2cc3ccccc3cc2N1`, the T/C by setting is: (dose: 3.13 mg/kg/injection, schedule: Q01DX009 (ip), vehicle: saline with Tween-80) 103 % of control; (dose: 6.25 mg/kg/injection, schedule: Q01DX009 (ip), vehicle: saline with Tween-80) 96 % of control; (dose: 12.5 mg/kg/injection, schedule: Q01DX009 (ip), vehicle: saline with Tween-80) 99 % of control; (dose: 25.0 mg/kg/injection, schedule: Q01DX009 (ip), vehicle: saline with Tween-80) 100 % of control.
As for `ClCc1nsc(Cl)n1`, the T/C (dose: 12.5 mg/kg/injection, schedule: Q01DX005 (ip), vehicle: Klucel (hydroxypropylcellulose) (HPC)) was 93 % of control; the T/C under setting [10] is 98 % of control; the T/C under setting [7] is 104 % of control and 93 % of control.
As for `COC(=O)C1(C(=O)OC)C2C=CC(Cl)C21` (stereo not given), the T/C under setting [11] is 96 % of control; the T/C (dose: 100.0 mg/kg/injection, schedule: Q01DX009 (ip), vehicle: Klucel (hydroxypropylcellulose) (HPC)) is 104 % of control; the T/C (dose: 200.0 mg/kg/injection, schedule: Q01DX009 (ip), vehicle: Klucel (hydroxypropylcellulose) (HPC)) is 93 % of control.
Turning to `CCCCN(CCCC)CCOc1c[nH]c(=O)[nH]c1=O`, the T/C is 103 % of control under setting [7] and 106 % of control under setting [8].
On to `O=C1CC([Se]c2ccccc2)C(=O)N1` (stereo not given), for which the T/C by setting is: (dose: 6.25 mg/kg/injection, schedule: Q04DX003 (ip), vehicle: Klucel (hydroxypropylcellulose) (HPC)) 99 % of control; (dose: 12.5 mg/kg/injection, schedule: Q04DX003 (ip), vehicle: Klucel (hydroxypropylcellulose) (HPC)) 102 % of control and 104 % of control; (dose: 25.0 mg/kg/injection, schedule: Q04DX003 (ip), vehicle: Klucel (hydroxypropylcellulose) (HPC)) 100 % of control and 107 % of control; (dose: 50.0 mg/kg/injection, schedule: Q04DX003 (ip), vehicle: Klucel (hydroxypropylcellulose) (HPC)) 100 % of control and 105 % of control.
Regarding `NC(CO)C(=O)NCCS(=O)(=O)O` (stereo not given), the T/C was 104 % of control (dose: 60.0 mg/kg/injection, schedule: Q01DX005 (ip), vehicle: saline); 99 % of control (dose: 120.0 mg/kg/injection, schedule: Q01DX005 (ip), vehicle: saline); 99 % of control (dose: 240.0 mg/kg/injection, schedule: Q01DX005 (ip), vehicle: saline).
On to `CCOc1c(N=Nc2ccc(C)cc2)c(C)nn1C(=S)S`, for which the T/C was 96 % of control under setting [1], 105 % of control under setting [2] and 97 % of control under setting [3].
Turning to `CC(=O)Oc1c[nH]c(=O)[nH]c1=O`, the T/C was 103 % of control and 97 % of control under setting [12]; 100 % of control and 97 % of control (dose: 50.0 mg/kg/injection, schedule: Q01DX009 (ip), vehicle: distilled water + Tween-80); 102 % of control and 103 % of control and 112 % of control under setting [13]; 109 % of control and 114 % of control and 119 % of control under setting [14]; 103 % of control and 123 % of control (dose: 400.0 mg/kg/injection, schedule: Q01DX009 (ip), vehicle: distilled water + Tween-80).
Consider `Cc1cc(=O)oc2cc(OC(=O)N(C)C)c(Cl)cc12`, for which the T/C reads like this: (dose: 50.0 mg/kg/injection, schedule: Q01DX009 (ip), vehicle: saline with Tween-80) 100 % of control; (dose: 100.0 mg/kg/injection, schedule: Q01DX009 (ip), vehicle: saline with Tween-80) 101 % of control; (dose: 200.0 mg/kg/injection, schedule: Q01DX009 (ip), vehicle: saline with Tween-80) 101 % of control.
Turning to `C=C(C)c1c2ccccc2cc2cccc(Sc3ccccc3)c12`, the T/C is 90 % of control under setting [4], 90 % of control under setting [5] and 90 % of control under setting [6].
